One may read the CC50 as the concentration giving 50% cytotoxicity. The low end stands for harm at low concentration, the high end for better tolerance by the cells. In general, pEC50 refers to the EC50 on a negative log10 scale, so that one unit is a factor of ten.

From US20250066358A1, “Inhibitors of Menin-MLL Interaction” (Bala Therapeutics, Inc., priority 2021, published 2025) come the findings set out here.

pEC50: −log10 of the molar value.

One data set concerns MOLM-13. As to the kind of experiment: MOLM-13 Cellular Growth Inhibition Assay (CellTiter-Glo). It is filed as cell-based. Particulars: Homo sapiens, 168 h, MOLM-13 cells, 7 days of incubation. How it is done:
(§1) HEK293 (Institute of Cytology Russian Academy of Science), MV4-11 (ATCC, CRL-9591), MOLM-13 (AcceGen, ABC-TC517S) were seeded at a density of 500 cells per well (HEK293) and 2000 cells per well (MV4-11, MOLM-13) in a 384-well clear bottom plate (Greiner Cat #781090) in 45 μl total volume of DMEM (PanEco, Cat #C420, Russia) or RPMI (PanEco, Cat #C330, Russia) with 10% FBS(HyClone Cat #SV30160.03). HEK293 were allowed to adhere overnight at 37° C., 5% CO2. 500× compounds solutions in DMSO (Sigma Cat #D2650) were prepared into Cmpnds plate (Diamond Well Plate, Axigen, Cat #P-384-120 SQ-C—S) and DMSO only control was included. 1 μl of 500× compounds (Cmpnds plate) was added to 49 μl of culture medium into Dilution plate (Diamond Well Plate, Axigen, Cat #P-384-120 SQ-C—S), mixed and then 5 μl of 10× compounds solutions were transferred to cells followed by centrifugation at 100 g for 1 min. Final DMSO concentration was 0.2%. After 3 days of incubation, 10 μl of 1× compounds were added to cells. After 7 days of incubation, 12 μl of CellTiter-Glo (Promega, CAT #G7572) were added to the cells, plate was centrifuged at 100 g for 1 min and luminescence signal was measured using Microplate Reader (CLARIOStar).
(In general: Cellular ATP, detected with luciferase, serves as a proxy for viable cell number.)

Data set [1] is described as follows: HEK293 Cellular Growth Inhibition Assay (CellTiter-Glo). It is filed as cell-based. Particulars: human, HEK293 cells, 7 days of incubation. How it is done:
as §1

A further data set has as its system MV4-11. In words: MV4-11 Cellular Growth Inhibition Assay (CellTiter-Glo). Type of data set: cell-based. The following applies: Homo sapiens, 168 h, MV4-11 cells, 7 days of incubation. On the procedure: as §1
The target in data set [2] is T1, recombinant MEN1 protein and fluorescein-labeled MLL4-43 peptide (Homo sapiens, UniProt O00255).
T1 construct: purchased Creativebiomart MEN1-35H
T1 sequence (O00255 1-610): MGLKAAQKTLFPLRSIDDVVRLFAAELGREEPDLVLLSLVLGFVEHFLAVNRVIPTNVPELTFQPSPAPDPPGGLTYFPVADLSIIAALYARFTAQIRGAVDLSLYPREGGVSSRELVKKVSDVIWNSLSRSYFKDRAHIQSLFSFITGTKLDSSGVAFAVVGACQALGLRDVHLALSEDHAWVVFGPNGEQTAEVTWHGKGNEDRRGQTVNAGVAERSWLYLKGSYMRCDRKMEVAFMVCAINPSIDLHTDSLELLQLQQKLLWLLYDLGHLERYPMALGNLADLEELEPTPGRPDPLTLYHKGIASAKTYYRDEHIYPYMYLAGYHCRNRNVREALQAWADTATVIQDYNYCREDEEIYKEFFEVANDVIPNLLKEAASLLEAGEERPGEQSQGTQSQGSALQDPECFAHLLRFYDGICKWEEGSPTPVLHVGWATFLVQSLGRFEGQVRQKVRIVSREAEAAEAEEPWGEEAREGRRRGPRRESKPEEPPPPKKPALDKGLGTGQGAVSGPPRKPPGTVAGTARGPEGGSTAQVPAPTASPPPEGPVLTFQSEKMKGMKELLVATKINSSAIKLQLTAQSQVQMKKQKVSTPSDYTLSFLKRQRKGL
As to the kind of experiment: Primary fluorescence polarization assay of MEN1 / MLL4-43 interaction inhibition. Type of data set: binding. The following applies: MEN1 10 nM, MLL4-43 0.5 nM, 1 hour at room temperature. On the procedure:
Compound activity was determined using recombinant MEN1 protein (Creativebiomart, Cat #MEN1-35H) and a custom fluorescein-labeled MLL4-43 peptide (Eton Bioscience Inc.). Interaction between MEN1 and MLL4-43 in the presence of compounds was determined by fluorescence polarization assay using a Microplate Reader ClarioStar Plus. The reaction was carried out in assay buffer (50 mM TRIS-HCl PH 7.4-7.6, 50 mM NaCl, 1 mM DTT, 0.1 mg/ml BSA). The compounds were dispensed on a 384 well Diamond Well Plate (Axigen, Cat #P-384-120 SQ-C—S) using the Biomek FX liquid handling system at 100× solutions of compounds in DMSO. 2× MEN1 mix (final concentration of MEN1 10 nM) was prepared in Assay buffer and 10 μl of mixture per well was added into 384w white Reaction plate with NBS(Corning, Cat #4513). 10 μl of Assay buffer w/o MENI was used for negative control. Plates were centrifuged for 1 min at 100 g. Next step the Compounds were added to Reaction plate using Biomek station via following steps: 3 μl of 100× compounds (in DMSO) were mixed thoroughly with 27 μl Assay Buffer, then 2 μl of this mixture was added to Reaction plate with 10 μl of MENI mix. Plates were centrifuged for 1 min at 100 g and incubated for 20 min at room temperature. Next 8 μL of MLL4-43 peptide per well was added to final concentration of MLL 0.5 nM. Plates were incubated for 1 hour at room temperature. Then fluorescence polarization was measured using Microplate Reader.
(Fluorescence polarisation rises when a labelled molecule tumbles more slowly, as on binding a larger partner.)

Regarding `CCS(=O)(=O)NC12CC(CN3CCC4(CC3)CN(c3ncnc5ccc(CC(F)(F)F)cc35)C4)(C1)C2` [Compound 74, N-(3-((2-(6-(2,2,2-trifluoroethyl)quinazolin-4-yl)-2,7-diazaspiro[3.5]nonan-7-yl)methyl)bicyclo[1.1.1]pentan-1-yl)ethanesulfonamide], the CC50 is 10 to 20 µM in the data set on MOLM-13 and more than 10 µM in the data set on MV4-11. The compound further showed a cytotoxic concentration (CC50) at 7 days in data set [1] of 30 to 50 µM. Further, the pEC50 in data set [2] is 5.30 to 6.00.

With `CCS(=O)(=O)N[C@H]1CC[C@H](CN2CCC3(CC2)CN(c2ncnc4ccc(CCc5cccc(F)c5)cc24)C3)CC1` [Compound 61, N-((1R,4R)-4-((2-(6-(3-fluorophenethyl)quinazolin-4-yl)-2,7-diazaspiro[3.5]nonan-7-yl)methyl)cyclohexyl)ethanesulfonamide], the 50% cytotoxic concentration (CC50) with MOLM-13 fell in the range of 1 to 5 µM; in the data set on MV4-11, 1 to 2.5 µM. In data set [1], the 50% cytotoxic concentration (CC50) at 7 days lay within 5 to 15 µM. Further, the pEC50 in data set [2] was 6.30 to 7.12.

As for `CCS(=O)(=O)N[C@H]1CC[C@H](CN2CCC3(CC2)CN(c2ncnc4ccc(CCc5cccnc5)cc24)C3)CC1` [Compound 56, N-((1R,4R)-4-((2-(6-(2-(pyridin-3-yl)ethyl)quinazolin-4-yl)-2,7-diazaspiro[3.5]nonan-7-yl)methyl)cyclohexyl)ethanesulfonamide], the CC50 in the data set on MOLM-13 and in the data set on MV4-11 was 5 to 10 µM in each case. In addition, the CC50 at 7 days in data set [1] was in the range of 15 to 30 µM. Moreover, the pEC50 in data set [2] is 6.00 to 6.30.

As for `CCS(=O)(=O)N[C@H]1CC[C@H](CN2CCC3(CC2)CN(c2ncnc4ccc(CC(C)c5ccccc5)cc24)C3)CC1` (mixture of isomers) [Compound 59, N-((1R,4R)-4-((2-(6-((RS)-2-phenylpropyl)quinazolin-4-yl)-2,7-diazaspiro[3.5]nonan-7-yl)methyl)cyclohexyl)ethanesulfonamide], the CC50 with MOLM-13 and in the data set with MV4-11 was not above 1 µM in each case. Besides, the cytotoxic concentration (CC50) at 7 days in data set [1] was not above 5 µM. In addition, the negative-log EC50 (pEC50) in data set [2] is 6.30 to 7.12.

Take `O=C1COc2cc(CN3CCC4(CC3)CN(c3ncnc5ccc(CC(F)(F)F)cc35)C4)ccc2N1` [Compound 75, 7-((2-(6-(2,2,2-trifluoroethyl)quinazolin-4-yl)-2,7-diazaspiro[3.5]nonan-7-yl)methyl)-2H-benzo[b][1,4]oxazin-3(4H)-one]: the half-maximal cytotoxic concentration (CC50) is 1 to 5 µM with MOLM-13 and 2.5 to 5 µM in the data set on MV4-11. In data set [1], the CC50 at 7 days lay within 15 to 30 µM. Besides, the pEC50 in data set [2] was 6.30 to 7.12.

Regarding `CCS(=O)(=O)N[C@H]1CC[C@H](CN2CCC3(CC2)CN(c2ncnc4ccc(CCc5ccccc5)cc24)C3)CC1` [Compound 51, N-((1R,4R)-4-((2-(6-phenethylquinazolin-4-yl)-2,7-diazaspiro[3.5]nonan-7-yl)methyl)cyclohexyl)ethanesulfonamide], the values for the CC50 in the data set on MOLM-13 and in the data set with MV4-11 were 5 to 10 µM and 2.5 to 5 µM, respectively. For the same compound, the CC50 at 7 days in data set [1] is 5 to 15 µM. Also, the negative logarithm of the EC50 (pEC50) in data set [2] was 6.00 to 6.30.

`CCNS(=O)(=O)c1ccc(CN2CC3(CCN(c4ncnc5ccc(CC(F)(F)F)cc45)CC3)C2)cc1` [Compound 45, N-ethyl-4-((7-(6-(2,2,2-trifluoroethyl)quinazolin-4-yl)-2,7-diazaspiro[3.5]nonan-2-yl)methyl)benzenesulfonamide]: the CC50 in the data set with MOLM-13 and in the data set with MV4-11 was 5 to 10 µM in each case. The compound also had a CC50 at 7 days in data set [1] of 15 to 30 µM. Moreover, the pEC50 in data set [2] was 5.30 to 6.00.

Turning to `CCS(=O)(=O)N[C@H]1CC[C@H](CN2CCC(Nc3ncnc4ccc(CC(F)(F)F)cc34)C2)CC1` (mixture of isomers) [Compound 71, N-((1R,4R)-4-(((RS)-3-((6-(2,2,2-trifluoroethyl)quinazolin-4-yl)amino)pyrrolidin-1-yl)methyl)cyclohexyl)ethanesulfonamide], the values for the CC50 with MOLM-13 and with MV4-11 were more than 20 µM and more than 10 µM, respectively. The cytotoxic concentration (CC50) at 7 days in data set [1] is more than 50 µM. The negative logarithm of the EC50 (pEC50) in data set [2] was less than 5.30.

Regarding `CCS(=O)(=O)Nc1ccc(CN2CCC3(CC2)CN(c2ncnc4ccc(CC(F)(F)F)cc24)C3)cc1OCC(C)N1CCN(S(C)(=O)=O)CC1` (racemic) [Compound 70, rac-(R)-N-(2-(2-(4-(methylsulfonyl)piperazin-1-yl)propoxy)-4-((2-(6-(2,2,2-trifluoroethyl)quinazolin-4-yl)-2,7-diazaspiro[3.5]nonan-7-yl)methyl)phenyl)ethanesulfonamide], the results for the CC50 in the data set on MOLM-13 and in the data set with MV4-11 were 5 to 10 µM and 2.5 to 5 µM, respectively. Moreover, in data set [1], the CC50 at 7 days lay in the range of 15 to 30 µM. Besides, in data set [2], the negative-log EC50 (pEC50) was less than 5.30.

`CCS(=O)(=O)N[C@H]1CC[C@H](CN2CCC3(CC2)CN(c2ncnc4ncc(CC(F)(F)F)cc24)C3)CC1` [Compound 65, N-(1R,4R)-[4-[[2-[6-(2,2,2-trifluoroethyl)pyrido[2,3-d]pyrimidin-4-yl]-2,7-diazaspiro[3.5]nonan-7-yl]methyl]cyclohexyl]ethanesulfonamide]: the 50% cytotoxic concentration (CC50) lay in the range of 1 to 5 µM in the data set with MOLM-13 and 1 to 2.5 µM in the data set with MV4-11. This compound had a CC50 at 7 days in data set [1] of more than 50 µM. The pEC50 in data set [2] was 6.30 to 7.12.
